Here are results for two compounds from patent US20220298222A1, “COMBINATION THERAPY OF A T CELL THERAPY AND AN ENHANCER OF ZESTE HOMOLOG 2 (EZH2) INHIBITOR AND RELATED METHODS” (Juno Therapeutics, Inc., priority 2019, published 2022).

Structures are written as SMILES.

Data set [1] concerns ABC cell lines (SU-DHL-2 and OCI-LY3). Put plainly: Cell viability by ATP luminescence-based assay, ABC cell lines. The settings on record: 6 days, 1.0 μM EPZ-6438, 0.1 μM or 1.0 μM CPI-1205, wild type EZH2.
Procedure: (§1) Cell viability was determined based on the amount of ATP quantified by a luminescence-based assay.
In data set [2] the test system is GCB cell lines (WSU-DLCL2, Farage, KARPAS-422, and SU-DHL-5). The experiment in a line: Cell viability by ATP luminescence-based assay, GCB cell lines. Conditions: 6 days; 1.0 μM EPZ-6438, 0.1 μM or 1.0 μM CPI-1205; mutant and wild type GCB cell lines.
Procedure: as §1
For data set [3], the system named is H3K27Me3 in GCB (WSU-DLCL2, Farage, KARPAS-422, SU-DHL-5) and ABC (SU-DHL-2, OCI-LY3) DLBCL cell lines. The experiment in a line: H3K27Me3 levels by Western blot in GCB and ABC DLBCL cell lines, two EZH2 inhibitors. Conditions: 6 days; 0.1 or 1.0 μM; all GCB and ABC cell lines tested. Format: cell-based. A general note: A western blot detects proteins with antibodies after separation by electrophoresis.

The conditions of data set [4]: cited from earlier work.

For `COc1cc(C)[nH]c(=O)c1CNC(=O)c1c(C)n([C@H](C)C2CCN(CC(F)(F)F)CC2)c2ccccc12` [CPI-1205], the “cell viability (ATP)” value in data set [1] is on record as “resistant”; in data set [2], “decreased cell viability”. In addition, the “H3K27Me3 levels (Western blot)” value in data set [3] is “decreased H2K27Me3 levels”.

As to `CCN(c1cc(-c2ccc(CN3CCOCC3)cc2)cc(C(=O)NCc2c(C)cc(C)[nH]c2=O)c1C)C1CCOCC1` [tazemetostat], in data set [4] (twice daily (BID) or three times daily (TID) for 28-day cycles, subjects with R/R B-cell non-Hodgkin lymphoma or an advanced solid tumor), the “recommended phase II dose” value was 800 mg. In addition, the “maximum tolerated dose (MTD)” value in data set [4] (twice daily, human subjects, R/R B-cell lymphoma, 28-day cycles) was 800 milligrams.
